Like-named read-outs stand apart in the source and are kept apart here.
What was measured:
A375 melanoma = experiment: in vitro cytotoxicity (antiproliferative activity) on A375 melanoma line; assay type: cell-based, human; conditions: for activity compared with EAPB0203: A375, comparing IC50 values of Table 3
From the text: Antiproliferative activity was first measured on a cancer cell line of human origin, A375 melanoma.
Imiquimod and fotemustine (Muphoran®) are used as controls in this study.
(§1) Several human carcinoma cell lines were used: • Lines A375, M4Be, RPMI7591 from human melanoma. • Line LS174T from colon carcinoma. • Line A 2780 from ovarian carcinoma. • The Raji line from B lymphoma. • Line MCF7 from breast carcinoma.
IC50 (concentration of the product tested which inhibits 50% of the maximum cell proliferation observed in the control wells) is determined graphically from the curve of the percentage of cell proliferation as a function of concentration of the product tested.

Raji (B lymphoma) = experiment: in vitro cytotoxicity on Raji B lymphoma line; assay type: cell-based, human; conditions: Table 2, unit inferred
From the text: as §1

MCF7 (breast cancer) = experiment: in vitro cytotoxicity on MCF7 breast cancer line; assay type: cell-based; conditions: Homo sapiens, Table 2, unit inferred
From the text: as §1

in vivo = conditions: rat
Description: (§2) Methods of assaying compounds EAPB0203, EAPB0503 and EAPB0603 by high performance liquid chromatography and detection by mass spectrometry (LC/ESI-MS) were developed and validated in human and rat plasmas. Pre-treatment of the samples consists of a liquid solid extraction preceded by precipitation of plasma proteins in acid medium. The chromatographic column used is C8 Zorbax eclipse XDB and the mobile phase (gradient) a mixture of acetonitrile and formate buffer (pH 3) (flow rate, 0.8 ml/min). The […] from 92 to 113%. The extraction coefficients are higher than 72%. The quantification limit is 5 μg/l for all analytes. Stability tests of the compounds in the matrices were also carried out. These methods were used to determine the pharmacokinetic parameters of compounds EAPB0203, EAPB0503 and EAPB0603 in the rat. The lethal doses 50% of compounds EAPB0203 and EAPB0503 are respectively 14.8 and 7.6 mg/kg.

LS174T (colon cancer) = experiment: in vitro cytotoxicity on LS174T colon cancer line; assay type: cell-based; conditions: Homo sapiens, Table 2, unit inferred
From the text: as §1

M4Be (melanoma) = experiment: in vitro cytotoxicity on M4Be melanoma line; assay type: cell-based; conditions: Homo sapiens, read-out: IC50 M4Be
From the text: as §1

RPMI7591 (melanoma) = experiment: in vitro cytotoxicity on RPMI7591 melanoma line; assay type: cell-based; conditions: Homo sapiens, read-out: IC50 RPMI7591
From the text: as §1

M4Be human melanoma = experiment: anti-proliferative activity in vivo, M4Be human melanoma xenografted in athymic mice; conditions: 20 mg/kg once per week i.p.; sacrifice at tumour volume 2 cm^3
Description: FIG. 1: Effects of fotemustine (20 mg/kg once per week for 3 weeks) and EAPB0203 (20 mg/kg twice per week for 3 weeks) on tumour growth in athymic Swiss mice xenografted with M4Be human melanoma cell line.
Δ, control; ▪, EAPB0203; ●, fotemustine. The data are the results of only one experiment carried out on six mice per group. The results are represented as mean±SEM.
In this study, data are presented relating to the activity of EAPB0203 on the volume of a type of human melanoma tumour model (M4Be lines), xenografted in athymic mice. This study required as a preliminary step several tests of grafts of human melanoma cell lines in athymic mice before establishing the adequate animal model. The in vivo study was performed following the in vitro experiments described previously.
The activity and specificity of EAPB0203 in vivo on tumour growth of human melanoma are evaluated by monitoring tumour development in mice carrying M4Be melanoma treated by administration of fotemustine and EAPB0203 at various doses.
For this study, 18 Swiss nude mice (3 groups of 6 mice) were used. M4Be cancer cells in suspension were injected subcutaneously into the right flank of each athymic Swiss nude female 7-week-old mouse weighing 20-22 g at the beginning of the protocol. The mice were then maintained in a sterile atmosphere and received aseptic food and water. The weight of the mouse and the growth of the tumour in three dimensions were recorded twice a week.
A first group of 6 mice (reference) will receive fotemustine by intra-peritoneal route at a dose of 20 mg/kg once per week for 3 weeks, beginning 7 days after inoculation at the time when the tumour will be visible and palpable. A second group of 6 mice will receive EAPB0203 at the same dose of 20 mg/kg via intra-peritoneal route but twice per week (40 mg/kg per week). The third group (control) of 6 mice will receive only the administration carrier. Tumour volume is calculated by the following formula: length X width X height X 0.52, and is expressed as mean±SEM mm^3.
For fotemustine and EAPB0203, the sequence of administrations is a treatment of three weeks, then two weeks without treatment, and then a second treatment of three weeks.

[1] = lethal doses 50% reported in the pharmacokinetic study; assay type: in vivo; conditions: species and route not stated in the sentence (rat study)
Description: as §2

[2] = A375, comparison of IC50 values
[3] = Homo sapiens, A-375, A375 melanoma line, Table 1, IC50 and standard deviation, read-out: IC50
[4] = Homo sapiens, A-375, A375, Table 3, read-out: IC50

Compound: Nc1nc2ccccc2n2c(CCc3ccccc3)cnc12 [EAPB0202, 1-(2-phenylethyl)imidazo[1,2-a]quinoxalin-4-amine]
- activity times higher than that of fotemustine (A375 melanoma; [2]): 70 times
- activity times higher than that of imiquimod (A375 melanoma; [2]): 30 times
- times more active than EAPB0204 (A375 melanoma; [2]): ~2 times
- IC50 (A375 melanoma; [3]): 2.35 µM

Compound: CC(C)Cc1cnc2c(N(C)C)nc3ccccc3n12 [EAPB0104, 1-Isobutyl-N,N-dimethylimidazo[1,2-a]quinoxalin-4-amine]
- IC50 (A375 melanoma; [3]): 66.3 ± 7.5 µM

Compound: CNc1nc2ccccc2n2c(-c3cccc(C(=O)O)c3)cnc12 [EAPB01303, 1-(3-carboxyphenyl)-N-methylimidazo[1,2-a]quinoxalin-4-amine]
- IC50 (A375 melanoma; [4]): 3.47 ± 0.55 µM

Compound: CN(Cc1cnc2nc(N)nc(N)c2n1)c1ccc(C(=O)N[C@@H](CCC(=O)O)C(=O)O)cc1 [Methothrexate, methothrexate]
- IC50 (Raji (B lymphoma)): 0.04 ± 0.005 µM

Compound: COc1cccc2c1C(=O)c1c(O)c3c(c(O)c1C2=O)C[C@@](O)(C(=O)CO)C[C@@H]3O[C@H]1C[C@H](N)[C@H](O)[C@H](C)O1 [Doxorubicine, doxorubicin]
- IC50 (MCF7 (breast cancer)): 0.13 ± 0.01 µM

Compound: CNc1nc2ccccc2n2c(-c3cccc(O)c3)cnc12 [EAPB0603, 1-(3-hydroxyphenyl)-N-methylimidazo[1,2-a]quinoxalin-4-amine]
- activity compared with EAPB0203 (A375 melanoma): higher than that of EAPB0203
- IC50 (A375 melanoma; [4]): 0.56 ± 0.12 µM
- metabolic relation (in vivo): active metabolite of EAPB0503
- elimination half-life (metabolite) (in vivo; iv, 5 mg/kg): 4.7 h

Compound: CCc1c2c(nc3ccc(OC(=O)N4CCC(N5CCCCC5)CC4)cc13)-c1cc3c(c(=O)n1C2)COC(=O)[C@]3(O)CC [Irinotecan, irinotecan]
- IC50 (LS174T (colon cancer)): 1.16 ± 0.07 µM

Compound: CCOc1cccc(-c2cnc3c(NC)nc4ccccc4n23)c1 [EAPB0903, 1-(3-ethoxyphenyl)-N-methylimidazo[1,2-a]quinoxalin-4-amine]
- activity compared with EAPB0203 (A375 melanoma): higher than that of EAPB0203
- IC50 (A375 melanoma; [4]): 0.3 ± 0.01 µM

Compound: CNc1nc2ccccc2n2c(-c3ccccc3)cnc12 [EAPB0403, N-methyl-1-phenylimidazo[1,2-a]quinoxalin-4-amine]
- IC50 (A375 melanoma; [4]): 2.19 ± 0.08 µM

Compound: CNc1nc2ccccc2n2c(-c3cccc(Cl)c3)cnc12 [EAPB01203, 1-(3-chlorophenyl)-N-methylimidazo[1,2-a]quinoxalin-4-amine]
- IC50 (A375 melanoma; [4]): 1.78 ± 0.35 µM

Compound: CCOP(=O)(OCC)C(C)NC(=O)N(CCCl)N=O (stereo not drawn) [Fotemustine, fotemustine, reference compound]
- IC50 (A375 melanoma; Homo sapiens, A-375, read-out: IC50 A375): 173 ± 24 µM
- IC50 (M4Be (melanoma)): 326 ± 34 µM
- IC50 (RPMI7591 (melanoma)): 125 ± 49 µM
- day on which the last mice were euthanatized (M4Be human melanoma): 76 days

Compound: Clc1nc2ccccc2n2c(CCc3ccccc3)cnc12 [EAPB0201, 4-Chloro-1-(2-phenylethyl)imidazo[1,2-a]quinoxaline]
- IC50 (A375 melanoma; [3]): 24 ± 0.5 µM

Compound: CNc1nc2ccccc2n2c(-c3cccc(C#N)c3)cnc12 [EAPB01503, 1-(3-cyanophenyl)-N-methylimidazo[1,2-a]quinoxalin-4-amine]
- IC50 (A375 melanoma; [4]): 27 ± 2.2 µM

Compound: CNc1nc2ccccc2n2cc(-c3cccc(OC)c3)nc12 [N-methyl-2-(3-methoxyphenyl)imidazo[1,2-a]quinoxalin-4-amine]
- activity times higher than EAPB0203 (A375 melanoma; A375): 100 times
- activity times higher than that of EAPB0503 (A375 melanoma; A375): 10 times
- IC50 (A375 melanoma; Homo sapiens, A-375, melanoma (A375), text b219, read-out: IC50): 0.018 µM

Compound: CNc1nc2ccccc2n2c(-c3ccccc3OC)cnc12 [EAPB0803, 1-(2-methoxyphenyl)-N-methylimidazo[1,2-a]quinoxalin-4-amine]
- IC50 (A375 melanoma; [4]): 122 ± 25 µM

Compound: 1-furan-N-methylimidazo[1,2-a]quinoxalin-4-amine [EAPB01703]
- IC50 (A375 melanoma; A375, Table 3, read-out: IC50): 74.1 ± 3.1 µM

Compound: CNc1nc2ccccc2n2c(-c3cccc([N+](=O)[O-])c3)cnc12 [EAPB01603, 1-(3-nitrophenyl)-N-methylimidazo[1,2-a]quinoxalin-4-amine]
- IC50 (A375 melanoma; [4]): 40 ± 3.9 µM

Compound: CNc1nc2ccccc2n2c(-c3cccc(OC)c3)cnc12 [EAPB0503, 1-(3-methoxyphenyl)-N-methylimidazo[1,2-a]quinoxalin-4-amine]
- activity compared with EAPB0203 (A375 melanoma): higher than that of EAPB0203
- IC50 (A375 melanoma; [4]): 0.18 ± 0.09 µM
- Vd (in vivo; iv, 5 mg/kg): 5.6 L/kg
- area under the curve of plasma concentrations (in vivo; iv, 5 mg/kg): 2310 ng·h/mL
- clearance (in vivo; iv, 5 mg/kg): 36.7 mL/min/kg
- half-life (in vivo; iv, 5 mg/kg): 1.76 h
- lethal doses 50% [1]: 7.6 mg/kg

Compound: CNc1nc2ccccc2n2c(CC(C)C)cnc12 [EAPB0103, 1-Isobutyl-N-methylimidazo[1,2-a]quinoxalin-4-amine]
- IC50 (A375 melanoma; [3]): 31.6 ± 2 µM

Compound: CN(C)c1nc2ccccc2n2c(CCc3ccccc3)cnc12 [EAPB0204, N,N-Dimethyl-1-(2-phenylethyl)imidazo[1,2-a]quinoxalin-4-amine]
- IC50 (A375 melanoma; [3]): 80.1 ± 7 µM

Compound: CNc1nc2ccccc2n2c(-c3ccc(OC)cc3)cnc12 [EAPB0703, 1-(4-methoxyphenyl)-N-methylimidazo[1,2-a]quinoxalin-4-amine]
- activity compared with EAPB0203 (A375 melanoma): higher than that of EAPB0203
- IC50 (A375 melanoma; [4]): 0.37 ± 0.4 µM

Compound: CNc1nc2ccccc2n2c(-c3cccc(Br)c3)cnc12 [EAPB01003, 1-(3-bromophenyl)-N-methylimidazo[1,2-a]quinoxalin-4-amine]
- activity compared with EAPB0203 (A375 melanoma): higher than that of EAPB0203
- IC50 (A375 melanoma; [4]): 0.65 ± 0.02 µM

Compound: CNc1nc2ccccc2n2c(-c3cccc(C(F)(F)F)c3)cnc12 [EAPB01103]
- IC50 (A375 melanoma; A375, Table 3, read-out: IC50): 1.28 ± 0.18 µM

Compound: COc1nc2ccccc2n2c(CCc3ccccc3)cnc12 [EAPB0206, 4-Methoxy-1-(2-phenylethyl)imidazo[1,2-a]quinoxaline]
- IC50 (A375 melanoma; [3]): 47.8 ± 5 µM

Compound: CNc1nc2ccccc2n2c(-c3cccc(F)c3)cnc12 [EAPB01403, 1-(3-fluorophenyl)-N-methylimidazo[1,2-a]quinoxalin-4-amine]
- IC50 (A375 melanoma; [4]): 24.9 ± 0.27 µM

Compound: CC(C)Cn1cnc2c(N)nc3ccccc3c21 [Imiquimod, imiquimod]
- IC50 (A375 melanoma; Homo sapiens, A-375, Table 2, unit inferred, read-out: IC50 A375): 70.3 ± 4.3 µM
- IC50 (M4Be (melanoma); Table 2, unit inferred): 33.5 ± 7.7 µM
- IC50 (RPMI7591 (melanoma); Table 2, unit inferred): 53.7 ± 9.8 µM
- IC50 (MCF7 (breast cancer)): 145 ± 7 µM
- IC50 (LS174T (colon cancer)): 34.4 ± 9.7 µM
- IC50 (Raji (B lymphoma); Homo sapiens, Raji): 139 ± 12 µM
